{"source": "patent US20080155704A1", "about": "“Methods and Compositions for Determining in vivo Activity of BiP” (King's College London, priority 2006, published 2008)", "key": {"[1]": {"tested_on": "collagen-induced arthritis (CIA)", "conditions": "administration of BiP to mice, literature reference, cited from earlier work"}, "[2]": {"tested_on": "indoleamine 2,3-dioxygenase (IDO)", "experiment": "Intracellular indoleamine 2,3-dioxygenase in mature dendritic cells (flow cytometry)", "assay_type": "cell-based, human", "conditions": "mDC(BiP)", "experimental": "Purified monocytes (>85% monocytes)(1.5.10^6/flask)(Corning Costar, High Wycombe, UK) were incubated in 5 ml of tissue culture medium (TCM)(RPMI 1640 medium (Sigma, Poole, UK) supplemented with 10% heat-inactivated foetal calf serum (FCS)(Life Technologies, Paisley, UK). iDC were generated using granulocyte macrophage—colony stimulating factor (GM-CSF) (1000 U/ml)(Novartis Research Institute, Vienna, Austria) and IL-4 (500 U/ml) (R&D Systems, Oxford, UK). Monocytes were cultured for 3 or 7 days with cytokines, either alone or in the presence of rhuBiP (20 μg/ml). Mature DC were generated by addition of 500 ng/ml lipopolysaccharide (LPS) for the final 2 days of culture.\nIntracellular staining was carried out with fixed cells incubated with 1% paraformaldehyde in IF buffer for 5 minutes at room temperature. The cells were washed twice with IF buffer containing 0.3% saponin for permeabilization. […] Antibodies were added at the pre-determined optimal concentration for 20 mins and then the cells were washed twice with IF buffer and analysed. […] Cells were analysed on a FACScan cytometer using Cellquest software (Becton Dickinson, Oxford, UK). […]\nImmunofluorescent staining was performed, as described previously (39), on DC harvested at day 7, T cells after 4 days co-culture with DC. […] Cells were analysed on a FACScan/FACScalibur cytometers using Cellquest software (BD, Oxford, UK)."}, "[3]": {"tested_on": "human rheumatoid arthritis synovial membrane (RASM)", "experiment": "Human RASM transplanted in SCID mice (RASM/SCID chimeric mouse)", "assay_type": "in vivo, human tissue in SCID mice", "experimental": "Small pieces of human synovial tissue from patients with rheumatoid arthritis were transplanted into SCID mice. […] CD86, HLA-DR, TNFα and IL-6 expression was measured by immunohistology. (B) the weight of explants retrieved from the mice treated as indicated after 12d.\nThis study used the previously developed SCID-HuRAg murine model (20). Briefly, pannus tissue, consisting of the leading edge of the invading synovial membrane into articular cartilage and bone, was collected as a single mass from RA patients at the time of arthroplastic surgery with full ethical approval. A block of 4-8 mm in diameter was implanted subcutaneously into the back of 6- to 7-week-old male SCID mice (CB.17/Icr; Charles River Japan, Tokyo, Japan), which had been bred under specific pathogen-free conditions. Successful implantation of human RA tissue was assessed visually 4 weeks after implantation, after which therapeutic manipulation of the mice was undertaken. […] The mice were sacrificed 12 days after injection to allow removal of the implanted tissue.\nThe degree of synovial inflammation of the implanted tissue was assessed as previously described. The histological findings were scored according to two different scoring systems: Koizumi's (40) or Rooney's method (41).\nParaffin embedded tissue sections were used for immunostaining for CD86 and HLA-DR. Frozen tissue sections were stained for the detection of cytokines (TNF, IL-1, IL-6, and IL-10). The tissue sections were blocked for endogenous peroxidase activity with 0.3% hydrogen peroxide in methanol for 15 min. Non-specific antibody binding was blocked with 10% normal goat serum for 1 hr at room temperature. The sections were incubated with specific antibody or normal IgG for 1 hr at 37° C. The sections incubated with anti-CD86 antibody were treated with biotinylated secondary antibody, then visualised using a kit (Vectastatin ABC kit, Vector) with 3-amino-n-ethylcarbazole (Nichirei, Tokyo) as a substrate. The other sections were treated with peroxidase-conjugated anti-mouse IgG (Histofine Simple Stain MAX PO; Nichirei, Tokyo) for 30 min at room temperature and developed with 3-amino-n-ethylcarbazole (Nichirei, Tokyo) for visualization. Sections were counterstained with Mayer haematoxylin for 10 sec and mounted in aqueous permanent mounting solution (Nichirei, Tokyo).\nThe serum levels of human IL-4, IL-6 and IL-10 were measured by a quantitative sandwich enzyme immunoassay technique (Quantikine HS, R&D systems) according to the manufacturer's instructions."}, "[4]": {"conditions": "10 μg/mouse single i.v. injection, 12 days"}, "[5]": {"conditions": "BiP 10 μg/animal i.v., 12d (FIG. 15A)"}}, "note": "Like-named read-outs stand apart in the source and are kept apart here.", "data": [{"substance": "BiP: 78 kD endoplasmic reticulum chaperone protein as disclosed in WO 00/21995; recombinant human protein", "values": [{"measurement": "effect on collagen-induced arthritis", "setting": "[1]", "value": "prevented or treated ongoing collagen-induced arthritis"}, {"measurement": "effect on collagen-induced arthritis", "setting": "[1]; listed as rhuBiP", "value": "prevented the induction of experimental arthritis"}, {"measurement": "cells containing intracellular IDO", "setting": "[2]; mean ±standard deviation, n=9 (Example 10)", "value": "14.1±7.1", "unit": "%"}, {"measurement": "cells containing intracellular IDO", "setting": "[2]; n=4 (Example 1)", "value": "17.6±8.6", "unit": "%"}, {"measurement": "human IL-6 in mouse sera", "setting": "[3]; 10 μg/mouse i.v., 12 days", "value": "0.5 ± 0.2", "unit": "pg/mL"}, {"measurement": "Koizumi score of synovial inflammation", "setting": "[3]; [4]", "value": "6.1±2.6"}, {"measurement": "Rooney score of synovial inflammation", "setting": "[3]; [4]", "value": "16±6"}, {"measurement": "IL-10 in explants", "setting": "[3]; BiP 10 μg/animal i.v., 12d", "value": "no increase in IL-10 was detected"}, {"measurement": "expression of CD86 and HLA-DR in explant sections (immunohistology)", "setting": "[3]; [5]", "value": "Significantly reduced expression of CD86 and HLA-DR"}, {"measurement": "production of human TNFα and IL-6 in explants (immunohistology)", "setting": "[3]; [5]", "value": "decreased production of human TNFα and IL-6"}]}]}
